Data: the supplement of paper PMC10307832

Legend:
Assay in all cases: relative viability (nuclei count vs DMSO), 5 days (fraction); higher = more cells survive
[1] = compound: C(C(=O)C(=O)O)Br [Bromopyruvate] + Nc1nc2[nH]cc(CCc3ccc(C(=O)N[C@@H](CCC(=O)O)C(=O)O)cc3)c2c(=O)[nH]1 [Pemetrexed] (partner 0.2 µM)
Summary of the method: (§1)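 The day after seeding in 1536-well plates, lung cancer cell lines were treated by pin tool with a single drug, or with a fixed anchor-drug dose together with five library-drug doses (not always all listed) in √10 steps. After 5 days, a combined fix-and-stain solution (final 0.05% Triton X-100, 1% formaldehyde, 1 ug/ml Hoechst) was added. Nuclei counted on 4× images gave relative viability as treated counts over vehicle counts, reported as the median of duplicate plates.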

[2] = compound: C(C(=O)C(=O)O)Br [Bromopyruvate] + C[C@@H](Oc1cc(-c2cnn(C3CCNCC3)c2)cnc1N)c1c(Cl)ccc(F)c1Cl [Crizotinib] (partner 1 µM)
Summary of the method: as §1

[3] = compound: CC(O)(CS(=O)(=O)c1ccc(F)cc1)C(=O)Nc1ccc(C#N)c(C(F)(F)F)c1 [Bicalutamide] + COc1cccc2cc(-c3nc([C@H]4CC[C@H](C(=O)O)CC4)n4ncnc(N)c34)[nH]c12 [OSI-027] (partner 0.5 µM)
Summary of the method: as §1

[4] = compound: C(C(=O)C(=O)O)Br [Bromopyruvate] + CCNC(=O)c1noc(-c2cc(C(C)C)c(O)cc2O)c1-c1ccc(CN2CCOCC2)cc1 [Luminespib] (partner 0.01 µM)
Summary of the method: as §1

Cell Line	relative viability ([1]; first compound 1 µM)	relative viability ([1]; first compound 3.162 µM)	relative viability ([1]; first compound 10 µM)	relative viability ([1]; first compound 31.62 µM)	relative viability ([1]; first compound 100 µM)	relative viability ([2]; first compound 1 µM)	relative viability ([2]; first compound 3.162 µM)	relative viability ([2]; first compound 10 µM)	relative viability ([2]; first compound 31.62 µM)	relative viability ([2]; first compound 100 µM)	relative viability ([3]; first compound 0.08 µM)	relative viability ([3]; first compound 0.253 µM)	relative viability ([3]; first compound 0.8 µM)	relative viability ([3]; first compound 2.53 µM)	relative viability ([4]; first compound 1 µM)	relative viability ([4]; first compound 3.162 µM)	relative viability ([4]; first compound 10 µM)	relative viability ([4]; first compound 31.62 µM)	relative viability ([4]; first compound 100 µM)
NCI-H358	0.147	0.145	0.164	0.17	0.183	0.681	0.702	0.521	0.604	0.64	0.903	0.651	1.01	0.67	0.429	0.397	0.554	0.322	0.31
NCI-H441	0.255	0.282	0.299	0.274	0.271	0.884	0.739	0.661	0.82	0.337	0.689	0.585	0.669	0.534	0.445	0.505	0.323	0.524	0.38
NCI-H460	0.0598	0.078	0.0595	0.0647	0.0655	0.771	0.921	1.09	0.919	0.714	0.772	0.601	1.04	0.545	0.0351	0.0317	0.0297	0.0334	0.0363
NCI-H520	0.64	0.713	0.691	0.598	0.629	0.716	0.707	0.737	0.685	0.673	0.237	0.228	0.373	0.251	0.223	0.216	0.228	0.182	0.242
NCI-H596	0.546	0.522	0.55	0.48	0.59	0.98	1	1.07	0.952	1.17	0.854	0.659	0.845	0.763	1.05	1.02	1.14	0.951	0.282
NCI-H647	0.17	0.162	0.156	0.184	0.177	1.05	1.18	1.25	1.16	1.1	0.543	0.628	0.79	0.585	0.203	0.306	0.108	0.109	0.4
NCI-H650	0.971	0.924	0.81	0.989	0.941	0.7	0.721	0.678	0.634	0.711	0.559	0.507	0.524	0.432	0.887	0.723	0.791	0.704	0.724
NCI-H661	0.905	0.944	0.985	0.889	0.907	1.05	0.897	0.854	1.12	1.11	0.719	0.691	0.839	0.699	0.882	0.969	0.964	0.91	0.892
NCI-H838	0.244	0.274	0.242	0.232	0.245	0.959	0.881	0.825	0.871	0.854	0.435	0.333	0.449	0.36	0.282	0.359	0.456	0.324	0.282
NCI-H1355	1.08	1.12	1.14	1.08	1.08	1.05	1.06	1.18	1.06	0.983	0.433	0.367	0.464	0.4	0.721	0.77	0.649	0.735	0.698
NCI-H1437	0.307	0.315	0.339	0.329	0.337	0.923	0.981	0.914	0.938	0.92	0.969	0.776	0.973	0.841	1.16	1.19	1.16	1.12	1.1
NCI-H1563	0.815	0.717	0.823	0.674	0.757	0.883	0.979	0.956	0.828	0.998	0.764	0.698	0.804	0.65	0.482	0.559	0.489	0.466	0.532
NCI-H1650	0.39	0.435	0.37	0.406	0.266	0.898	1.24	0.942	0.922	0.56	0.71	0.552	0.744	0.649	0.19	0.224	0.186	0.177	0.182
NCI-H1651	0.551	0.583	0.582	0.527	0.579	0.876	0.83	0.919	0.847	0.796	0.654	0.562	0.856	0.694	0.853	0.848	0.929	0.811	1.01
NCI-H1666	0.834	0.896	1.02	0.859	0.855	0.993	0.907	0.963	1.18	0.857	0.911	0.866	0.916	0.831	1.08	1.14	0.989	1.04	0.844
NCI-H1734	0.391	0.398	0.395	0.466	0.408	0.67	0.68	0.803	0.67	0.659	0.66	0.473	0.614	0.488	0.174	0.225	0.212	0.175	0.201
NCI-H1755	0.44	0.441	0.371	0.475	0.52	0.973	0.797	0.884	0.881	1	0.768	0.687	0.82	0.524	0.501	0.516	0.421	0.466	0.465

Cell Line	relative viability ([1]; first compound 1 µM)	relative viability ([1]; first compound 3.162 µM)	relative viability ([1]; first compound 10 µM)	relative viability ([1]; first compound 31.62 µM)	relative viability ([1]; first compound 100 µM)	relative viability ([2]; first compound 1 µM)	relative viability ([2]; first compound 3.162 µM)	relative viability ([2]; first compound 10 µM)	relative viability ([2]; first compound 31.62 µM)	relative viability ([2]; first compound 100 µM)	relative viability ([3]; first compound 0.08 µM)	relative viability ([3]; first compound 0.253 µM)	relative viability ([3]; first compound 0.8 µM)	relative viability ([3]; first compound 2.53 µM)	relative viability ([4]; first compound 1 µM)	relative viability ([4]; first compound 3.162 µM)	relative viability ([4]; first compound 10 µM)	relative viability ([4]; first compound 31.62 µM)	relative viability ([4]; first compound 100 µM)
NCI-H1792	0.904	0.997	0.699	0.894	0.983	1.11	1.03	1.09	0.878	0.984	0.731	0.634	0.855	0.768	0.664	0.487	0.53	0.573	0.423
NCI-H1915	0.496	0.41	0.497	0.511	0.481	0.836	0.862	0.885	0.923	0.878	0.639	0.516	0.653	0.535	0.673	0.849	0.925	0.706	0.781
NCI-H1944	0.576	0.707	0.625	0.656	0.63	1.08	1.09	1.12	1.07	1.14	0.476	0.292	0.442	0.389	0.716	0.785	0.967	0.7	0.734
NCI-H1975	0.276	0.3	0.292	0.326	0.292	0.95	0.955	1	0.981	0.955	0.741	0.642	0.746	0.633	0.227	0.286	0.084	0.255	0.253
NCI-H1993	0.629	0.649	0.633	0.605	0.582	1.25	0.931	0.899	0.84	0.867	0.479	0.594	0.523	0.511	0.483	0.997	1.26	0.862	0.833
NCI-H2009	1.01	1.04	0.936	0.868	1.11	1.05	1.1	1.03	0.921	0.724	0.756	0.641	0.74	0.347	1	1.09	0.953	1.01	0.708
NCI-H2023	0.231	0.246	0.273	0.205	0.187	0.685	0.658	0.618	0.785	0.542	0.44	0.338	0.427	0.271	0.77	0.883	0.789	0.65	0.901
NCI-H2085	0.974	0.954	0.992	0.937	0.963	0.823	0.984	0.874	0.778	0.797	0.832	0.642	0.788	0.628	0.417	0.425	0.508	0.396	0.217
NCI-H2087	0.658	0.745	0.651	0.72	0.567	0.9	0.957	0.661	0.78	0.78	0.598	0.512	0.579	0.572	0.141	0.176	0.16	0.175	0.161
NCI-H2126	0.702	0.636	0.66	0.677	0.695	1.02	1.07	1.04	0.99	0.988	0.681	0.619	0.673	0.755	0.888	0.892	0.943	0.896	0.874
NCI-H2170	0.277	0.27	0.249	0.258	0.626	1.33	1.24	1.2	1.29	1.15	0.765	0.636	0.668	0.705	0.75	0.979	0.689	0.574	0.583
NCI-H2228	0.343	0.339	0.337	0.357	0.341	0.44	0.641	0.492	0.404	0.617	0.517	0.756	0.811	0.603	0.182	0.144	0.148	0.145	0.193
NCI-H2347	0.42	0.471	0.486	0.44	0.43	0.753	0.602	0.951	0.595	0.684	0.395	0.327	0.515	0.427	0.783	0.522	0.686	0.401	0.702
NCI-H2405	1.14	1.06	1.24		0.728	0.79	0.841	1.04	0.696	0.907	0.651	0.568	0.624	0.632	0.719	0.643	0.738	0.741	0.675
NCI-H3122	0.209	0.193	0.186	0.183	0.192	0.252	0.263	0.304	0.289	0.248	0.951	0.905	1.25	0.881	0.0847	0.0952	0.105	0.0703	0.0612
PC-3 [JPC-3]	1.3		0.783		1.11	1.03	1	0.944	1.01	0.983	0.797	0.808	0.768	0.737	0.797	0.752	0.766	0.608	0.693
PC-14	0.141	0.143	0.14	0.154	0.123	0.991	0.868	0.826	0.966	0.997	0.825	0.697	1.6	0.606	0.191	0.184	0.169	0.157	0.203
